In ChEMBL document CHEMBL4184210, “Optimization of novel monobactams with activity against carbapenem-resistant Enterobacteriaceae - Identification of LYS228” (Bioorg Med Chem Lett, 2018):
In brackets after ≈: the same amount, converted by molar mass.

Columns and labels:
[1] = system: Escherichia coli; experiment: Antimicrobial activity against Escherichia coli expressing beta-lactamase KPC-2 by CLSI broth microdilution method; assay type: functional
[2] = system: Escherichia coli; experiment: microbe, parasite or virus in culture
Description: Antimicrobial activity against Escherichia coli expressing beta-lactamase TEM-10 by CLSI broth microdilution method

[3] = system: Escherichia coli; experiment: microbe, parasite or virus in culture; remark: listed apart in the source
Description: Antimicrobial activity against Escherichia coli expressing beta-lactamase SHV-12 by CLSI broth microdilution method

[4] = system: Escherichia coli; experiment: microbe, parasite or virus in culture; remark: listed apart in the source
Description: Antimicrobial activity against wild type Escherichia coli by CLSI broth microdilution method

[5] = Chemical stability in pH 7.4 potassium phosphate buffer assessed as half life for compound hydrolysis at 37 degC by UPLC and mass spectrometry; assay type: physicochemical
[6] = system: Escherichia coli; experiment: microbe, parasite or virus in culture; remark: listed apart in the source
Description: Antimicrobial activity against Escherichia coli expressing beta-lactamase CTXM-15 by CLSI broth microdilution method

[7] = system: Escherichia coli; experiment: microbe, parasite or virus in culture; remark: listed apart in the source
Description: Antimicrobial activity against Escherichia coli expressing beta-lactamase CMY-2 by CLSI broth microdilution method

[8] = system: Escherichia coli; experiment: microbe, parasite or virus in culture; remark: listed apart in the source
Description: Antimicrobial activity against Escherichia coli expressing beta-lactamase AmpC by CLSI broth microdilution method

[9] = system: Escherichia coli; experiment: Antimicrobial activity against Escherichia coli expressing beta-lactamase NDM-1 by CLSI broth microdilution method; assay type: functional

| MIC [1] [µg/mL] | MIC [2] [µg/mL] | MIC [3] [µg/mL] | MIC [4] [µg/mL] | half-life [5] [h] | MIC [6] [µg/mL] | MIC [7] [µg/mL] | MIC [8] [µg/mL] | MIC [9] [µg/mL] | SMILES |
| --- | --- | --- | --- | --- | --- | --- | --- | --- | --- |
| 2 | 8 | 8 | 1 | > 37 | 2 | 8 | 2 |  | CC(C)(O/N=C(\C(=O)N[C@@H]1C(=O)N(S(=O)(=O)O)[C@@H]1Cn1cc(NC(=O)C[N+](C)(C)C)nn1)c1csc(N)n1)C(=O)O |
| 2 (≈ 3.67 µM) | 2 (≈ 3.67 µM) | 4 (≈ 7.33 µM) | 1 (≈ 1.83 µM) | > 37 | 1 (≈ 1.83 µM) | 4 (≈ 7.33 µM) | 2 (≈ 3.67 µM) |  | CC(C)(O/N=C(\C(=O)N[C@@H]1C(=O)N(S(=O)(=O)O)[C@@H]1Cn1cc(CCN)nn1)c1csc(N)n1)C(=O)O (stereo in doubt) |
| 8 (≈ 15 µM) | 4 (≈ 7.51 µM) | 4 (≈ 7.51 µM) | 4 (≈ 7.51 µM) | 214 | 8 (≈ 15 µM) |  | 16 (≈ 30 µM) | 8 (≈ 15 µM) | CC(C)(O/N=C(\C(=O)N[C@@H]1C(=O)N(S(=O)(=O)O)[C@@H]1CN1CCCCC1=O)c1csc(N)n1)C(=O)O (stereo in doubt) |
| 16 (≈ 29.3 µM) | 32 (≈ 58.6 µM) | 16 (≈ 29.3 µM) | 32 (≈ 58.6 µM) | > 37 | 16 (≈ 29.3 µM) | 64 (≈ 117 µM) | 32 (≈ 58.6 µM) |  | CC(C)(O/N=C(\C(=O)N[C@@H]1C(=O)N(S(=O)(=O)O)[C@@H]1Cn1cc(C(=O)O)nn1)c1csc(N)n1)C(=O)O (stereo in doubt) |
| 16 (≈ 27 µM) | > 64 | 16 (≈ 27 µM) | 8 (≈ 13.5 µM) | > 37 | 8 (≈ 13.5 µM) | 32 (≈ 54.1 µM) | 16 (≈ 27 µM) |  | CC(C)(O/N=C(\C(=O)N[C@@H]1C(=O)N(S(=O)(=O)O)[C@@H]1CN1C[C@H](CNC(=N)N)OC1=O)c1csc(N)n1)C(=O)O (stereo in doubt) |
| 2 (≈ 3.87 µM) | 8 (≈ 15.5 µM) | 4 (≈ 7.74 µM) | 4 (≈ 7.74 µM) | > 37 | 4 (≈ 7.74 µM) | 8 (≈ 15.5 µM) | 8 (≈ 15.5 µM) |  | Cc1ncnn1C[C@@H]1[C@H](NC(=O)/C(=N\OC(C)(C)C(=O)O)c2csc(N)n2)C(=O)N1S(=O)(=O)O (stereo in doubt) |
| 32 (≈ 58.1 µM) | 64 (≈ 116 µM) | 32 (≈ 58.1 µM) | 16 (≈ 29.1 µM) | > 37 | 16 (≈ 29.1 µM) | 16 (≈ 29.1 µM) | 32 (≈ 58.1 µM) |  | CC(C)(O/N=C(\C(=O)N[C@@H]1C(=O)N(S(=O)(=O)O)[C@@H]1CN1C[C@@H](CO)OC1=O)c1csc(N)n1)C(=O)O (stereo in doubt) |
| 4 (≈ 7.93 µM) | 16 (≈ 31.7 µM) | 8 (≈ 15.9 µM) | 2 (≈ 3.96 µM) | > 1000 | 4 (≈ 7.93 µM) |  | 64 (≈ 127 µM) | 2 (≈ 3.96 µM) | CC(C)(O/N=C(\C(=O)N[C@@H]1C(=O)N(S(=O)(=O)O)[C@@H]1CN1CCC1=O)c1csc(N)n1)C(=O)O (stereo in doubt) |
| 2 (≈ 3.76 µM) | 2 (≈ 3.76 µM) | 4 (≈ 7.53 µM) | 1 (≈ 1.88 µM) | > 37 | 1 (≈ 1.88 µM) | 1 (≈ 1.88 µM) | 1 (≈ 1.88 µM) |  | CC(C)(O/N=C(\C(=O)N[C@@H]1C(=O)N(S(=O)(=O)O)[C@@H]1Cn1cc(CN)nn1)c1csc(N)n1)C(=O)O (stereo in doubt) |
| 1 (≈ 1.94 µM) | 4 (≈ 7.77 µM) | 1 (≈ 1.94 µM) | 1 (≈ 1.94 µM) |  | 0.5 (≈ 0.972 µM) | 4 (≈ 7.77 µM) | 2 (≈ 3.89 µM) |  | Nc1nc(/C(=N/OC2(C(=O)O)CCC2)C(=O)N[C@@H]2C(=O)N(S(=O)(=O)O)[C@@H]2Cn2cncn2)cs1 (stereo in doubt) |
| 1 (≈ 2.05 µM) | 4 (≈ 8.19 µM) | 4 (≈ 8.19 µM) | 0.125 (≈ 0.256 µM) |  | 0.125 (≈ 0.256 µM) | 8 (≈ 16.4 µM) | 2 (≈ 4.09 µM) |  | C[C@H](O/N=C(\C(=O)N[C@@H]1C(=O)N(S(=O)(=O)O)[C@@H]1Cn1cncn1)c1csc(N)n1)C(=O)O (stereo in doubt) |
| 32 (≈ 55.8 µM) | 16 (≈ 27.9 µM) | 16 (≈ 27.9 µM) | 16 (≈ 27.9 µM) | > 37 | 16 (≈ 27.9 µM) | 32 (≈ 55.8 µM) | 32 (≈ 55.8 µM) |  | CC(C)(O/N=C(\C(=O)N[C@@H]1C(=O)N(S(=O)(=O)O)[C@@H]1Cn1ncnc1CNC(=N)N)c1csc(N)n1)C(=O)O (stereo in doubt) |
| 1 (≈ 1.82 µM) | 2 (≈ 3.64 µM) | 0.5 (≈ 0.91 µM) | 0.5 (≈ 0.91 µM) | > 37 | 0.5 (≈ 0.91 µM) | 1 (≈ 1.82 µM) | 1 (≈ 1.82 µM) |  | CC(C)(O/N=C(\C(=O)N[C@@H]1C(=O)N(S(=O)(=O)O)[C@@H]1CN1C[C@@H](CN)OC1=O)c1csc(N)n1)C(=O)O (stereo in doubt) |
| 0.25 (≈ 0.5 µM) | 0.5 (≈ 0.999 µM) | 1 (≈ 2 µM) | 0.125 (≈ 0.25 µM) |  | 0.125 (≈ 0.25 µM) | 1 (≈ 2 µM) | 1 (≈ 2 µM) |  | Nc1nc(/C(=N/OC2(C(=O)O)CC2)C(=O)N[C@@H]2C(=O)N(S(=O)(=O)O)[C@@H]2Cn2cncn2)cs1 (stereo in doubt) |
